Columns and labels:
LuECs = assay: GDNF ELISA in conditioned media from LuECs; type: cell-based; conditions: mouse LuECs
Description: (§1) Testis, lung, or liver ECs were plated (10,000 cells ml^−1) on 12 well dishes coated with 0.1% gelatin and cultured for 24 hours. Conditioned media was harvested at 24 and 48 hours after FGF-2 (2 ng ml^−1, 20 ng ml^−1 and 50 ng ml^−1) treatment and analyzed by ELISA for GDNF (Promega GDNF Emax immunoassay system, #G7621) following the manufacturer's instruction. Statistics was analyzed using Graph Pad Prism. For quantification of Gdnf mRNA, total RNA was isolated from the cells using Direct-zol RNA MiniPrep (Zymo Research) and reverse transcribed using High Capacity cDNA Reverse Transcription Kit (Appliedbiosystems), according to the manufacturer's instructions. All gene expression levels were normalized to GAPDH mRNA levels.
FIG. 2. a. Quantication of GDNF by ELISA in conditioned media from TECs, LuECs and LiECs after treatment with the indicated concentration of FGF-2 for 2 days, n=3. Bar=100 μm. Data are presented as the mean±s.e.m. b. Representative brighteld (BF) and GFP images of 2D cultures of GFP+ SSCs co-cultured with STO cells or TECs plus exogenous GDNF and FGF-2 on days 1 and 8 after seeding. Quantication of stem cell numbers 8 days after co-culture with STO or TECs and the average colony area are shown on the right, n=3. Data are presented as the mean±s.e.m. Bar=100 μm. *P<0.05. c. […]

EGR-1 [1] = assay: Western blot of EGR-1 expression in TECs; type: cell-based, mouse; conditions: TEC
Text: FIG. 5. GDNF expression in TECs is regulated by CaN-NFAT signaling. a. Immunouorescence images of testis sections immunostained with the stem cell markers DDX4 and Oct4 and DAPI to stain DNA. Testes were harvested from 1-week-old or 4-week-old Euploid or Ts65Dn mice. Quantication of DDX4+ and Oct4+ cells relative to DAPI per high-powered eld (HPF) is shown on the right, ***P<0.0001. Bar=50 μm. Two-way ANOVA test. b. […] Values are mean±s.e.m. n=4. c. Quantication of GDNF levels by ELISA in conditioned media from murine TECs, LuEC and LiEC after 2 ngml-1 FGF-2 treatment in the presence or absence of CsA. Values are mean±s.e.m., n=4. d. H&E-stained cross-sections from testes of age-matched Euploid, Ts65Dn or Ts65Dn mice 5 weeks after implantation with GFP+ TECs isolated from syngeneic wild-type mice (Ts65Dn+GFP+ TECs). Red dotted line encircles mature sperm (yellow arrow) in the lumen of the seminiferous tubules. Immunouorescence images with GFP and DAPI to stain DNA of testis sections from Ts65Dn+GFP+TECs mice. e. Western blot analysis of EGR-1 protein expression in TECs and LuECs untreated or after FGF-2 treatment, expression of constitutively active NFATc1 (caNFATc1) or an empty vector control. Actin was probed as a loading control. f. Quantication of nuclear translocation of EGR1 and NFATc1 in TECs after treatment with conditioned media (CM), 2 ng ml-1 FGF-2±CsA. Values are mean±s.e.m. g. […]

EGR-1 [2] = assay: EGR-1 expression in DS-iPS EC; type: cell-based, human
TECs = assay: GDNF ELISA in conditioned media from TECs; type: cell-based, mouse; conditions: for GDNF production in conditioned media of TECs after FGF-2 treatment: wild-type mouse TECs
Description: as §1
FIG. 2. a. Quantication of GDNF by ELISA in conditioned media from TECs, LuECs and LiECs after treatment with the indicated concentration of FGF-2 for 2 days, n=3. Bar=100 μm. Data are presented as the mean±s.e.m. b. Representative brighteld (BF) and GFP images of 2D cultures of GFP+ SSCs co-cultured with STO cells or TECs plus exogenous GDNF and FGF-2 on days 1 and 8 after seeding. Quantication of stem cell numbers 8 days after co-culture with STO or TECs and the average colony area are shown on the right, n=3. Data are presented as the mean±s.e.m. Bar=100 μm. *P<0.05. c. Images of 2D co-cultures of GFP+Thy1.2+ SSCs with TECs and immunostained with the germ cell marker DDX4. Inset: bar=10 μm. d. The 3D spheroid co-cultures of GFP+Thy-1.2+ SSCs with TECs or LuECs were generated with Matrigel but no exogenous GDNF or FGF-2. GFP+ Spheroid co-cultures were immunostained with DDX4 (red), Oct4 (white) and DAPI (blue) at day 15. Quantication of the average diameter and total number of colonies is shown on the right; n=3. All data are presented as the mean±s.e.m. Bar=50 m, *P<0.05. **P<0.01. e. Representative BF images merged with GFP images of serially passaged GFP+Thy-1.2+ SSCs co-cultured with TECs at the indicated passage number (1st, 2nd, 3rd or 4th) or day (D). […]

fibroblast growth factor-2 [FGF-2]
GDNF production in conditioned media of LuECs after FGF-2 treatment (LuECs): not | EGR-1 expression after FGF-2 treatment (EGR-1 [1]): increased EGR-1 expression | EGR-1 expression after FGF treatment (EGR-1 [2]): minimal EGR-1 expression | GDNF expression in media of Fgfr1−/− TECs after FGF2 treatment (TECs; Fgfr1−/− TECs compared to Fgfr1+/+ wild-type TECs): no increase in GDNF expression | GDNF production in conditioned media of TECs after FGF-2 treatment (TECs): induced significant levels of GDNF | GDNF production in conditioned media of TECs after FGF-2 treatment (TECs; listed as FGF2): stimulated significant GDNF production

— patent US20210386792A1, “A METHOD FOR INCREASING POPULATION OF SPERMATOGONIAL STEM CELLS” (priority 2018, published 2021)
